Where two headings read alike, the source gives them in different places.
Key:
[1] = test system: MYC transcriptional activity (c-Myc E-box-luciferase reporter, MycCap cells); assay: MYC E-box luciferase reporter assay; assay type: cell-based; details: Mus musculus, Myc-CaP, read-out: Ebox reporter: IC50
Procedure: To test the compounds, we evaluated the in silico hits in a MYC E-Box luciferase reporter assay to measure the effects of these compounds (referred to as Min-1 to Min-32) on MYC transcriptional activity. […] (See FIG. 2).
MycCap cells stably expressing luciferase with CMV promoter (MycCap-luc) or c-Myc E-box-luciferase reporter (MycCap Ebox-luc) were plated at 10000 cells per well in 96 well white-wall plate. Serial dilutions of 361 were treated next day. At 4 hours of treatment, luminescence signal was determined immediately after adding 150 μg/ml of Luciferin to the well. (See FIG. 12).

CMV reporter = CMV reporter assay (control reporter beside the Ebox reporter); assay type: cell-based

SMILES	IC50 ([1]; class symbols) [µM]	IC50 (CMV reporter) [µM]	IC50 ([1]; given as numeric bound) [µM]
Oc1c(-c2cc(C(F)(F)F)n[nH]2)ccc(NCc2ccc(Cl)cc2)c1-c1ccc(Cl)c(C(F)(F)F)c1 [NUCC-0202433]	5 to 10	> 50	–
O=C(c1ccc(C(F)(F)F)c(Cl)c1)N(Cc1ccc(Cl)cc1)c1ccc(-c2cc(C(F)(F)F)n[nH]2)c(O)c1 [NUCC-0202434]	< 5	40	–
Oc1c(-c2cc(C(F)(F)F)n[nH]2)ccc(OCc2ccc(Cl)cc2)c1Oc1ccc(F)cn1 [NUCC-0202435]	10 to 50	> 50	–
O=c1cc(C(F)(F)F)oc2cc(NCc3ccc(Cl)cc3)ccc12 [NUCC-0202436]	10 to 50	> 50	–
CC(Oc1ccc(-c2cc(C(F)(F)F)n(C)n2)c(O)c1-c1ccc(Cl)c(C(F)(F)F)c1)c1ccc(Cl)cc1 (centres unmarked) [NUCC-0202437]	–	> 50	> 50
NC(=O)c1cc(-c2ccc(OCc3ccc(Cl)cc3)c(-c3ccc(Cl)c(C(F)(F)F)c3)c2O)[nH]n1 [NUCC-0202521]	10 to 50	34	–
CNC(=O)c1cc(-c2ccc(OCc3ccc(Cl)cc3)c(-c3ccc(Cl)c(C(F)(F)F)c3)c2O)[nH]n1 [NUCC-0202522]	10 to 50	43	–
CN(C)C(=O)c1cc(-c2ccc(OCc3ccc(Cl)cc3)c(-c3ccc(Cl)c(C(F)(F)F)c3)c2O)[nH]n1 [NUCC-0202523]	–	> 50	> 50
Cn1nc(C(=O)O)cc1-c1ccc(OCc2ccc(Cl)cc2)c(-c2ccc(Cl)c(C(F)(F)F)c2)c1O [NUCC-0202524]	10 to 50	> 50	–
Cn1nc(-c2ccc(OCc3ccc(Cl)cc3)c(-c3ccc(Cl)c(C(F)(F)F)c3)c2O)cc1C(=O)O [NUCC-0202525]	10 to 50	> 50	–
Cn1nc(C(N)=O)cc1-c1ccc(OCc2ccc(Cl)cc2)c(-c2ccc(Cl)c(C(F)(F)F)c2)c1O [NUCC-0202526]	10 to 50	> 50	–
CN(C)C(=O)c1cc(-c2ccc(OCc3ccc(Cl)cc3)c(-c3ccc(Cl)c(C(F)(F)F)c3)c2O)n(C)n1 [NUCC-0202527]	10 to 50	> 50	–
C=C(C)c1cc(-c2ccc(OCc3ccc(Cl)cc3)c(-c3ccc(C)c(C)c3)c2C)nn1C [NUCC-0202528]	10 to 50	28	–
CNC(=O)c1cc(-c2ccc(OCc3ccc(Cl)cc3)c(-c3ccc(Cl)c(C(F)(F)F)c3)c2O)nn1C [NUCC-0202529]	10 to 50	> 50	–
CCOC(=O)c1cc(-c2ccc(OCc3ccc(Cl)cc3)c(-c3ccc(Cl)c(C(F)(F)F)c3)c2O)[nH]n1 [NUCC-0202530]	10 to 50	> 50	–
CN(C)C(=O)c1cc(-c2ccc(OCc3ccc(Cl)cc3)c(-c3ccc(Cl)c(C(F)(F)F)c3)c2O)nn1C [NUCC-0202531]	–	> 50	> 50
Cc1cc(-c2ccc(OCc3ccc(Cl)cc3)c(-c3ccc(Cl)c(C(F)(F)F)c3)c2O)[nH]n1 [NUCC-0202532]	10 to 50	> 50	–
Cc1cc(-c2ccc(OCc3ccc(Cl)cc3)c(-c3ccc(Cl)c(C(F)(F)F)c3)c2O)n(C)n1 [NUCC-0202533]	10 to 50	> 50	–
Cc1cc(-c2ccc(OCc3ccc(Cl)cc3)c(-c3ccc(Cl)c(C(F)(F)F)c3)c2O)nn1C [NUCC-0202534]	–	> 50	> 50
Oc1cc(-c2ccc(OCc3ccc(Cl)cc3)c(-c3ccc(Cl)c(C(F)(F)F)c3)c2O)[nH]n1 [NUCC-0202535]	10 to 50	> 50	–
Oc1cc(OCc2ccc(Cl)cc2)ccc1-c1[nH]nc(C(F)(F)F)c1Oc1ccc(Cl)c(F)c1 [NUCC-0202536]	5 to 10	44	–
Cn1nc(C(F)(F)F)c(Oc2ccc(Cl)c(F)c2)c1-c1ccc(OCc2ccc(Cl)cc2)cc1O [NUCC-0202537]	5 to 10	40	–
Cn1nc(C(F)(F)F)cc1-c1ccc(OCc2ccc(Cl)cc2)c(-c2ccc(Cl)c(C(F)(F)F)c2)c1O [NUCC-0202538]	–	> 50	> 50
CNC(=O)c1cc(-c2ccc(OCc3ccc(Cl)cc3)c(-c3ccc(Cl)c(C(F)(F)F)c3)c2O)n(C)n1 [NUCC-0202635]	10 to 50	> 50	–
Oc1cc(OCc2ccc(Cl)cc2)ccc1-c1[nH]nc(C(F)(F)F)c1Oc1ccc(F)c(Cl)c1 [NUCC-0202636]	5 to 10	41	–
Cn1nc(C(F)(F)F)c(Oc2ccc(F)c(Cl)c2)c1-c1ccc(OCc2ccc(Cl)cc2)cc1O [NUCC-0202637]	5 to 10	43	–
Cn1nc(O)cc1-c1ccc(OCc2ccc(Cl)cc2)c(-c2ccc(Cl)c(C(F)(F)F)c2)c1O [NUCC-0202638]	10 to 50	> 50	–
COc1c(C(F)(F)F)n[nH]c1-c1ccc(OCc2ccc(Cl)cc2)cc1O [NUCC-0202639]	5 to 10	32	–
